Tests used:
[1] = system: HCT116 colon cancer cells; assay: HCT116 cell viability and proliferation assay (MTS); type: cell-based; conditions: Homo sapiens, HCT-116, 72 h, HCT116, 72 hours, read-out: Cell viability (MTS): HCT116 GI50 Day3
Description: HCT116 colon cancer cells were obtained from ATCC (American Type Culture Collection), and maintained in Mc Coy's 5A medium containing 10% FBS, 3 mM glutamine and 1% penicillin/streptomycin. Cells were incubated at 37° C. in a humidified atmosphere containing 5% CO2.
Cell viability was assayed using the MTS technique in 96-well culture plates (CellTiter 96® Aqueous Non-Radioactive Cell Proliferation Assay, Promega) according to the manufacturer's instructions. MTS (3-(4,5-dimethyl-thiazol-2-yl)-5-(3-carboxy-methoxyphenyl)-2-(4-sulfophenyl)-2H-tetra-zolium) is a MTT-derived tetrazolium that is reduced in metabolically active cells into a soluble, cell-permeant formazan. The amount of formazan, detected by its absorbance at 492 nm is proportional to the number of living, metabolically active cells.
10^3 HCT116 cells were seeded per well. 24 hours later, the medium was changed and the cells treated in triplicate with the concentrations of each compound from 100 μM to 50 nM. The compounds were diluted in 100% DMSO, whose final concentration on cells was kept at 0.5%.
Cells were incubated with the compounds for 72 hours, and their viability then assayed by the addition of MTS for 2 hours. Absorbance at 492 nm was measured directly from the 96-well culture plates. Gl50 (Growth Inhibition 50) concentrations for each compound were calculated using a sigmoidal variable slope fit (Prism 4.0, Graphpad Softwares). Values represent mean of three independent experiments.

[2] = molecular target: T1, USP7 over a panel of active DUBs (Homo sapiens, UniProt Q93009); assay: HA-Ub-VS labeling of active DUBs in HEK293 cell lysates; type: biochemical; conditions: different doses
T1 sequence (Q93009 whole entry): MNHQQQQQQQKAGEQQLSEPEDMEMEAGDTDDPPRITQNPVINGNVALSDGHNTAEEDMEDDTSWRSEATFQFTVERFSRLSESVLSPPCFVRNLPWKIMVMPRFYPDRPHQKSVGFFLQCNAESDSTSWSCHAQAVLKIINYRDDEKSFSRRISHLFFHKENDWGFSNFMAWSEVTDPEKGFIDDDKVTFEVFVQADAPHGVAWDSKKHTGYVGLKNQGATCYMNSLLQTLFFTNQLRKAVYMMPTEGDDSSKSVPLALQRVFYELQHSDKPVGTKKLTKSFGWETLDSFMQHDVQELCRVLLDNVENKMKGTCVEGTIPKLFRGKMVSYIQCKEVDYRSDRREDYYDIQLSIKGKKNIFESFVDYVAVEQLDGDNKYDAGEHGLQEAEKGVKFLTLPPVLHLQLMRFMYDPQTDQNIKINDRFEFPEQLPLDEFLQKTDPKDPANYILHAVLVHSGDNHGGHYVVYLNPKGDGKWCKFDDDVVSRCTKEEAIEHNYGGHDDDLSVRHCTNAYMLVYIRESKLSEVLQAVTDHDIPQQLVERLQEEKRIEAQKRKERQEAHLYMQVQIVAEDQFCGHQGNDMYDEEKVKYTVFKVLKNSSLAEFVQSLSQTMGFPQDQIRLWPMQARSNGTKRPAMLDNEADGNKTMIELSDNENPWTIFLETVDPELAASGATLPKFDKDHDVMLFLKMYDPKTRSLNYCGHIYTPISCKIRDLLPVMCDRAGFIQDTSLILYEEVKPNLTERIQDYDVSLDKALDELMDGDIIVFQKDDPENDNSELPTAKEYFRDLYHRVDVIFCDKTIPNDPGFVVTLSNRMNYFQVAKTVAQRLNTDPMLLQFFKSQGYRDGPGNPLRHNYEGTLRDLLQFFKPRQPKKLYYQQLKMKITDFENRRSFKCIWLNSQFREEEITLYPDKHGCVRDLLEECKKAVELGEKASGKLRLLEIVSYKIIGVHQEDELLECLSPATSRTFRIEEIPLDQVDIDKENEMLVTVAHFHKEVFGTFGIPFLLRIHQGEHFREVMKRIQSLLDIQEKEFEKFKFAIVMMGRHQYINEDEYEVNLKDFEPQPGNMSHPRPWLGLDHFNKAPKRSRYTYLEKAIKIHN
From the text: (§1) The C-terminally modified vinyl sulfone derivative of ubiquitin, UbVS, was clearly helpful for a direct visualization of active DUBs in cells. This tool, which binds covalently to the cysteine active site of deubiquitinating enzymes, was successfully applied to discover and characterize novel ubiquitin/ubiquitin-like proteases and to profile active deubiquitinating enzymes in normal, virus-infected, and malignant cells (Borodovsky et al., Chem Biol 2002, 9, 1149-1159, Hemelaar et al., Mol Cell Biol 2004, 24, 84-95, Ovaa et al., Proc Natl Acad Sci USA 2004 101, 2253-2258).
The HA-Ub-VS probe (Hemagglutin tag-Ubiquitin-Vinyl Sulfone) was used in this study to directly visualize the activity of all deubiquitinating enzymes from cell lysates. […]
Inducible USP7 shRNA HCT116 cells (previously treated with or without Doxycycline (2 μg/ml) for 4 days) as well as HEK293 cells were harvested and lysed on ice with a non denaturating buffer containing Tris pH7.4, 50 mM; NaCl, 150 mM; MgCl2, 5 mM; EDTA, 0.5 mM; DTT, 2 mM; ATP, 2 mM; NP40, 0.5% and glycerol, 10%. […] Proteins were then quantified by Bradford method (Bio-Rad Protein Assay). […] Signals were detected by enhanced chemiluminescence (ECL; Amersham) according to the reagent manufacturer's instructions.

[3] = molecular target: T1, USP7 over a panel of active DUBs; assay: HA-Ub-VS labeling of active DUBs in HCT116 cell lysates; type: biochemical; set-up: endogenous in cells; host or cells: HCT116 (inducible USP7 shRNA line), non-denaturing lysate; conditions: for HA-Ub-VS-USP7 protein level: different doses (100 μM to 3 μM), 2 hours
From the text: as §1
The HA-Ub-VS probe (Hemagglutin tag-Ubiquitin-Vinyl Sulfone) was used in this study to directly visualize the activity of all deubiquitinating enzymes from cell lysates. This tool was used to evaluate the activity/specificity of our small molecule compounds on USP7 relative to all deubiquitinating enzymes active in physiological conditions.
Inducible USP7 shRNA HCT116 cells (previously treated with or without Doxycycline (2 μg/ml) for 4 days) as well as HEK293 cells were harvested and lysed on ice with a non denaturating buffer containing Tris pH7.4, 50 mM; NaCl, 150 mM; MgCl2, 5 mM; EDTA, 0.5 mM; DTT, 2 mM; ATP, 2 mM; NP40, 0.5% and glycerol, 10%. Samples were incubated at 4° C. for 1 hour and clarified. Proteins were then quantified by Bradford method (Bio-Rad Protein Assay). 25 μg of proteins from native cell lysates were treated with compounds of examples 14 and 5 (from 100 μM to 3 μM) or with NEM (N-Ethylmaleimide, a thiol-reactive compound, 5 mM) for 2 hours at room temperature. The ubiquitin labeling reaction was initiated by the addition of HA-Ub-VS (8 μg/ml) in labeling buffer (Tris pH7.6, 50 mM; MgCl2, 5 mM; EDTA, 0.5 mM; DTT, 2 mM; ATP, 2 mM; sucrose, 250 mM) and incubated at room temperature for 30 min. Samples were next heated at 100° C. for 10 minutes and briefly sonicated. They were resolved by SDS-polyacrylamide gel electrophoresis (SDS-PAGE), transferred to a nitrocellulose membrane and probed with antibodies against USP7 (Bethyl Lab, A300-034A), HA (BabCO, MMS-101P), and actin (Sigma, A2066). Horseradish peroxidase (HRP)-conjugated anti-mouse (Jackson Laboratories, 115-035-003) or HRP-conjugated anti-rabbit (Cell Signaling, 7074) antibodies were used as secondary antibodies. Signals were detected by enhanced chemiluminescence (ECL; Amersham) according to the reagent manufacturer's instructions.

| GI50 [1] [µM] | HA-Ub-VS-USP7 protein level [2] | HA-Ub-VS-USP7 protein level [3] | HA-Ub-VS labeled DUB bands after treatment ([3]; fixed dose 50 μM, anti-HA immunoblot) | Structure (SMILES) | HA-Ub-VS labeling of the active form of DUBs ([3]; NEM 5 mM) |
| --- | --- | --- | --- | --- | --- |
| 4.1 | also confirmed | specific and dose-dependent decrease | only one band was decreased | CN(CCCNC(=O)c1ccc2c(Cl)c3c(nc2c1)CCCC3)Cc1ccccc1 [Example 14, 9-Chloro-5,6,7,8-tetrahydro-acridine-3-carboxylic acid [3-(benzyl-methyl-amino)-propyl]-amide] | – |
| 4 | also confirmed | specific and dose-dependent decrease | – | CCN(CCCNC(=O)c1ccc2c(Cl)c3c(nc2c1)CCCC3)Cc1ccccc1 [Example 5, 9-Chloro-5,6,7,8-tetrahydro-acridine-3-carboxylic acid [3-(benzyl-ethyl-amino)-propyl]-amide] | – |
| – | – | – | – | CCN1C(=O)C=CC1=O [NEM, N-Ethylmaleimide, reference compound] | inhibited |

Reference: patent publication US9328093B2, “Selective inhibitors of ubiquitin specific protease 7, the pharmaceutical compositions thereof and their therapeutic applications” (HYBRIGENICS SA, priority 2010, dated 2016)
